In paper PMC10698726 (Molecular Pharmaceutics, 2023):
Read-outs that look alike come from different tables or passages of the source.

Tests used:
[1] = target: T1, OCT1 (Homo sapiens, UniProt O15245); conditions: ref 1 (Tzvetkov et al., 2018, supplement); cited from earlier work
T1 sequence (O15245 1-554): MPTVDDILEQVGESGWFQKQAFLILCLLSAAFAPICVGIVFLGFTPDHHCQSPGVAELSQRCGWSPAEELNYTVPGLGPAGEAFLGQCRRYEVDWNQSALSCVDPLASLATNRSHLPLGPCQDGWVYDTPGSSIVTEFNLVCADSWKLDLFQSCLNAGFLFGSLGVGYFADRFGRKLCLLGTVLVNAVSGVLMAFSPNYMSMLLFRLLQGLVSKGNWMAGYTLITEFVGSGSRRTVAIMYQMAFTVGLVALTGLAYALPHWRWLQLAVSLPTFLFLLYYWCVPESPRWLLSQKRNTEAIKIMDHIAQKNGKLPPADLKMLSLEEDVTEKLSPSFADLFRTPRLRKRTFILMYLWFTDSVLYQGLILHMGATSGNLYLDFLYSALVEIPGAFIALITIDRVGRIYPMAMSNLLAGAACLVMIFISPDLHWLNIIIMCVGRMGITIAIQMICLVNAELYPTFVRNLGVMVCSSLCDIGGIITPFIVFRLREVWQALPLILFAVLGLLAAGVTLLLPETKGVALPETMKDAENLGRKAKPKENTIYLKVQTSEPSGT

[2] = target: T2, OCT2 (Homo sapiens, UniProt O15244); test: Inhibition of model substrate uptake in OCT2-overexpressing HEK293 cells; conditions: for IC50: IC50 [μM], OCT2, Table 1; for (S,S)-Ethambutol inhibition [%] / ASP+ inhibition [%] / N-Ethyllidocaine inhibition [%] / inhibition at 5 min, 20 μM: OCT2, 20 μM inhibitor, 5 min
T2 sequence (O15244 1-555): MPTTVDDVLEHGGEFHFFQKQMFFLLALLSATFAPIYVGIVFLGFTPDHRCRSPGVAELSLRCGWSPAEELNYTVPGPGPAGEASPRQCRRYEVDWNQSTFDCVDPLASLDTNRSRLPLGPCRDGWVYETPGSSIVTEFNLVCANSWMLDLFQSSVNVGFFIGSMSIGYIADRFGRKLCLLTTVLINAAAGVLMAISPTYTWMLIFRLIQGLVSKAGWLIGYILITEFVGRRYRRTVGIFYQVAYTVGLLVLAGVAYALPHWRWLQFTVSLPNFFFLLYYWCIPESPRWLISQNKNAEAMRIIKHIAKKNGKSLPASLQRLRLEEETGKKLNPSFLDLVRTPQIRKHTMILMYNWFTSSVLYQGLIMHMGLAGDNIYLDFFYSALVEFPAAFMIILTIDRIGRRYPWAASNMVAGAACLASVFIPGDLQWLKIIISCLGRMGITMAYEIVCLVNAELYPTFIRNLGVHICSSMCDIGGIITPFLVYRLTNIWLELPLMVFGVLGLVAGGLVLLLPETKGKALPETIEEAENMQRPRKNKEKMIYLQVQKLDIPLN

[3] = target: T3, OCT3 (Homo sapiens, UniProt O75751); test: Inhibition of model substrate uptake in OCT3-overexpressing HEK293 cells; type: cell-based; conditions: 20 μM inhibitor, 5 min
T3 construct: expressed in transfected cells; host or cells: HEK293
T3 sequence (O75751 1-556): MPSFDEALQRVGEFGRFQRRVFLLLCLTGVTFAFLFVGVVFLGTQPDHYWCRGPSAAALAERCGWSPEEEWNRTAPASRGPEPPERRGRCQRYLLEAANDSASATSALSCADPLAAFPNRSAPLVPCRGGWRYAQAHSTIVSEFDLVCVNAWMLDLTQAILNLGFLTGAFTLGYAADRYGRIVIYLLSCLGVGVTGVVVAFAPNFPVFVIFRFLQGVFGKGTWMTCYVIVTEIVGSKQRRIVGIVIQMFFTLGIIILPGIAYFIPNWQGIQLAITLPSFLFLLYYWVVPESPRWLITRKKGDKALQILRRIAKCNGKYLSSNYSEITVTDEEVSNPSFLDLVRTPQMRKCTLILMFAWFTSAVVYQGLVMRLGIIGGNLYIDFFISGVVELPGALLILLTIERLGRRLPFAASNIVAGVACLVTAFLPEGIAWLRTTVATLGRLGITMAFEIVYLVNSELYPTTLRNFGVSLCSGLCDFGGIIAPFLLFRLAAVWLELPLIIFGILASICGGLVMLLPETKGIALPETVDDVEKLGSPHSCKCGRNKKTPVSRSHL
Summary of the method: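 IC50 values were fitted with a Hill equation from net uptake, calculated as uptake in overexpressing HEK293 cells minus empty-vector control uptake. Cells were exposed for 5 min to 2 μM model substrate alone, with 20 μM inhibitor, or with a concentration series. Uptake was quantified by ASP^+ fluorescence or LC–MS/MS after lysis in 80% acetonitrile.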

[4] = oral administration, cited from earlier work
[5] = target: T1, OCT1; test: Inhibition of model substrate uptake in OCT1-overexpressing HEK293 cells; type: cell-based; parameters: expressed in transfected cells; host or cells: HEK293; conditions: OCT1, 20 μM inhibitor, 5 min; for inhibition at 5 min, 20 μM: human, OCT1-overexpressing HEK293 cells
Protocol: Koepsell and Gorbulev (University of Würzburg, Germany).
Fluorescence quantification was performed in technical duplicates.

[6] = HEK293, 5 min, read-out: (S)-Zolmitriptan inhibition [%], OCT3, 2 μM (S)-zolmitriptan
[7] = HEK293, 5 min, read-out: (S,S)-Ethambutol inhibition [%], OCT3, 2 μM (S,S)-ethambutol
[8] = HEK293, OCT3, 2 μM ASP+, read-out: ASP+ inhibition [%]
[9] = amisulpride, single dose (50 mg)
[10] = pH 7.4, probe (S,S)-ethambutol (2 μM), (S,S)-Ethambutol inhibition [%], 2 μM (S,S)-ethambutol
[11] = pH 7.4, probe ASP+ (2 μM), 2 μM ASP+, mean of three experiments, read-out: ASP+ inhibition [%]
[12] = pH 7.4, probe sumatriptan (2 μM), 2 μM sumatriptan, read-out: Sumatriptan inhibition [%]

Structure (SMILES)	IC50 [2] [µM]	(S,S)-Ethambutol inhibition [%] ([2]; 2 μM (S,S)-ethambutol)	ASP+ inhibition [%] ([2]; 2 μM ASP+)	N-Ethyllidocaine inhibition [%] ([2]; 2 μM N-ethyllidocaine)	inhibition at 20 µM [3, 6] [%]	inhibition at 20 µM [3, 7] [%]	inhibition at 20 µM [3, 8] [%]	Imax [4, 9] [µM]	inhibition at 5 min, 20 μM [5, 10] [%]	inhibition at 5 min, 20 μM [5, 11] [%]	inhibition at 5 min, 20 μM [5, 12] [%]	further results
CC(Cc1ccc(O)cc1)NCC(O)c1cc(O)cc(O)c1 (racemic) [rac Fenoterol, Fenoterol]	–	–	–	–	–	–	–	–	–	–	–	Clint ± SEM [1]: 33.0
CCN1CCC[C@@H]1CNC(=O)c1cc(S(=O)(=O)CC)c(N)cc1OC [(R)-Amisulpride]	9.4	-5.7	65.9	11.3	56	81.3	37.9	0.158	57.7	25.2	29.3	–
CN(C)CCC[C@]1(c2ccc(F)cc2)OCc2cc(C#N)ccc21 [(R)-Citalopram]	17.8	–	–	–	11.8	17.2	4.5	–	72.8	28.9	78	inhibition at 5 min, 20 μM ([2]; human, OCT2-overexpressing HEK293 cells, pH 7.4, probe (S,S)-ethambutol (2 μM), (S,S)-Ethambutol inhibition [%], 2 μM (S,S)-ethambutol): 1.4%; inhibition at 5 min, 20 μM ([2]; human, OCT2-overexpressing HEK293 cells, pH 7.4, probe ASP+ (2 μM), ASP+ inhibition [%], 2 μM ASP+): 52.1%; inhibition at 5 min, 20 μM ([2]; human, OCT2-overexpressing HEK293 cells, pH 7.4, probe N-ethyllidocaine (2 μM), N-Ethyllidocaine inhibition [%], 2 μM N-ethyllidocaine): 28.4%; Imax ([4]; citalopram, multiple doses (40 mg, once daily for 21 d)): 0.228 µM
CCN1CCC[C@H]1CNC(=O)c1cc(S(=O)(=O)CC)c(N)cc1OC [(S)-Amisulpride]	29.8	-13.2	38.0	1.9	–	–	–	0.182	–	–	–	selectivity ratio at 5 min ([2]; human, OCT2-overexpressing HEK293 cells, pH 7.4): 3.2; (S)-Zolmitriptan inhibition [%] ([3]; OCT3, 2 μM (S)-zolmitriptan): 46.0%; (S,S)-Ethambutol inhibition [%] ([3]; OCT3, 2 μM (S,S)-ethambutol): 73.1%; ASP+ inhibition [%] ([3]; OCT3, 2 μM ASP+): 33.7%; (S,S)-Ethambutol inhibition [%] ([5]; 2 μM (S,S)-ethambutol): 51.7%; ASP+ inhibition [%] ([5]; 2 μM ASP+, mean of three experiments): 23.5%; Sumatriptan inhibition [%] ([5]; 2 μM sumatriptan): 15.2%
